Laboratory results as given in patent US6716829B2, “Aldosterone antagonist and cyclooxygenase-2 inhibitor combination therapy to prevent or treat inflammation-related cardiovascular disorders” (Pharmacia Corporation, priority 2000, dated 2004).
Several values for one entry are separate records, joined by “and”; a condition that tells them apart may be missing. Equal values may be shown once.

Assay: Assay C: body weight, left and right ventricle weight, tibia length (myocardial hypertrophy)
Format: in vivo, Male Sprague-Dawley rats
Conditions: for Body weight: aldosterone + salt at days 7, 14 and 30 vs vehicle + salt, eplerenone effect at day 30; for Ventricular hypertrophy (absolute ventricular weights, ventricular weight to tibia length ratios): 7 to 30 days
Method: The procedure of Assay B was expanded upon in a further study. […] Myocardial tissue from animals in each treatment group was examined after 7, 14, or 30 days of treatment.
Male Sprague-Dawley rats, weighing 230 to 250 g, (Harlan Sprague-Dawley Industries, Indianapolis, IN) were housed in a room 12-hours light/12-hours dark daily cycle at an ambient temperature of 22±1° C. (n=96). Animals were allowed one week to adjust after arrival and had free access to TEKLAD 22/5 rodent diet (Harlan TEKLAD, Madison, Wis.) and tap water until the initiation of the experiment.
Potassium chloride supplementation was added to the saline solution in order to prevent the potential hypokalemia associated with aldosterone excess.
At the time of the surgery, an Alzet 2002 osmotic minipump (Alza Corp., Palo Alto, Calif.) containing either vehicle (9% ethanol/87% propylene glycol/4% dH2O) or 1.0 mg/mL d-aldosterone (Sigma Chemical, St. Louis, Mo.) was inserted subcutaneously at the nape of the neck. Aldosterone was administered at a dose of 0.75 µg/hour. […] Animals were sacrificed from each group (n=8-13) after 7, 14, or 30 days of treatment.
Animals to be sacrificed after 7 or 14 days of treatment were uninephrectomized and implanted with an Alzet minipump. Animals treated for 30 days were uninephrectomized, fitted for Alzet minipumps, and implanted with radio telemetry units (model #TA11PA-C40, Data Sciences Inc., St. Paul, Minn.) according to the following procedure. Animals were anesthetized with 5% isoflurane (SOLVAY Animal Health Inc., Mendota Heights, Minn.), which was delivered in O2 using a VMS anesthesia instrument (Matrix Medical, Inc., Orchard Park, N.Y.). Anesthesia was maintained with 1-2% isoflurane throughout the surgical procedure. The surgery site was clipped, scrubbed with nolvasan, and sprayed with betadine. A rostral-caudal incision was made through the skin from the base of the rib cage to the pubic region using a #11 scalpel blade. A second incision was made through the muscles of the abdominal wall to expose the peritoneal cavity. The […], renal artery and vein of the left kidney were isolated, tied off with 4-0 silk, and the kidney excised and discarded. Organs were carefully displaced with tissue retractors in order to expose the abdominal aorta. A 1.5 cm segment just rostral to the bifurcation of the abdominal aorta into the iliac arteries was cleared of excessive connective tissue and 4-0 silk was used to make an anchor adjacent to the aorta. A microvascular clip was then placed at both ends of the cleaned region to stop excessive blood flow. Using a bent, 21 gauge needle, the abdominal aorta was penetrated. The cannula of the radio telemetry unit was inserted and stabilized in the aorta using the 4-0 silk anchor. Organs were repositioned and the telemetry unit was placed over the organs. Using a non-interrupted suture pattern with 4-0 silk, the abdominal wall was closed, and the skin was subsequently closed using a 4-0 silk in an interrupted suture pattern. Animals were injected around the sutures with 100 μL of the anesthetic Marcaine HCl (Sanofi Winthrop Pharmaceuticals, New York, N.Y.) and given an injection (i.m.) of the antibiotic Mandol (Eli Lilly & Co., Indianapolis, Ind.). Post-operative care included monitoring the animals on a heating pad during recovery from anesthesia until sternal recumbency was reestablished. Animals were monitored daily for signs of distress and infection at the surgical site. Animals displaying continued discomfort after surgery were treated with 0.1-0.5 mg/kg, s.c. Buphrenorphine (Rickett & Colman Pharmaceuticals, Inc. Richmond, Va.). Animals were then placed on tap water and TEKLAD 22/5 rodent diet (Harlan TEKLAD, Madison, Wis.).

[1] = 14-day protocol, individual rats and group Mean, listed as Aldosterone + salt
[2] = 14-day protocol, individual rats and group Mean, listed as Aldosterone + salt, mean
[3] = 30-day protocol, individual rats and group Mean, listed as Aldosterone + salt
[4] = 30-day protocol, individual rats and group Mean, listed as Aldosterone + salt, group mean
[5] = aldosterone + salt, eplerenone 100 mg/kg/day
[6] = mean ± SEM after 7 days of treatment, aldosterone + salt, eplerenone 100 mg/kg/day
[7] = mean ± SEM after 14 days of treatment, aldosterone + salt, eplerenone 100 mg/kg/day
[8] = mean ± SEM after 30 days of treatment, eplerenone dose 100 mg/kg/day
[9] = 14-day protocol, individual rats and group Mean, listed as Eplerenone + aldosterone + salt
[10] = 14-day protocol, individual rats and group Mean, listed as Eplerenone + aldosterone + salt, mean
[11] = individual rats and group mean, 7 days of treatment, aldosterone + salt, eplerenone 100 mg/kg/day
[12] = individual rats and group mean, 7 days of treatment, aldosterone + salt, eplerenone 100 mg/kg/day, group mean

## C[C@]12CCC(=O)C=C1CC[C@@H]1[C@@H]2[C@@H](O)C[C@]2(C=O)[C@@H](C(=O)CO)CC[C@@H]12 [Aldosterone]
[1]
  Left Ventricle Weight: 846 mg and 784 mg and 912 mg and 720 mg and 923 mg and 854 mg and 894 mg and 859 mg and 750 mg and 818 mg and 746 mg and 700 mg
  Left Ventricle Weight/ Tibia Length: 223 mg/cm and 206 mg/cm and 234 mg/cm and 189 mg/cm and 237 mg/cm and 225 mg/cm and 229 mg/cm and 220 mg/cm and 197 mg/cm and 215 mg/cm and 202 mg/cm and 194 mg/cm
  Right Ventricle Weight: 194 mg and 189 mg and 208 mg and 174 mg and 217 mg and 186 mg and 216 mg and 171 mg and 153 mg and 195 mg and 172 mg
  Right Ventricle Weight/ Tibia Length: 51 mg/cm and 50 mg/cm and 53 mg/cm (3×) and 56 mg/cm and 49 mg/cm and 55 mg/cm and 44 mg/cm and 40 mg/cm and 48 mg/cm
[2]
  Left Ventricle Weight: 817 mg
  Left Ventricle Weight/ Tibia Length: 214 mg/cm
  Right Ventricle Weight: 189 mg
  Right Ventricle Weight/ Tibia Length: 50 mg/cm
[3]
  Left Ventricle Weight: 934 mg and 726 mg and 963 mg and 942 mg and 1030 mg and 837 mg and 962 mg and 873 mg and 919 mg
  Left Ventricle Weight/ Tibia Length: 234 mg/cm and 191 mg/cm and 247 mg/cm (2×) and 242 mg/cm (2×) and 264 mg/cm and 215 mg/cm and 218 mg/cm
  Right Ventricle Weight: 196 mg and 148 mg and 215 mg and 176 mg and 224 mg and 173 mg and 220 mg and 187 mg and 185 mg
  Right Ventricle Weight/ Tibia Length: 49 mg/cm (2×) and 39 mg/cm and 55 mg/cm and 45 mg/cm and 57 mg/cm and 44 mg/cm and 56 mg/cm and 47 mg/cm
[4]
  Left Ventricle Weight: 910 mg
  Left Ventricle Weight/ Tibia Length: 233 mg/cm
  Right Ventricle Weight: 192 mg
  Right Ventricle Weight/ Tibia Length: 49 mg/cm
  Body weight: significantly lower
[5]
  Ventricular hypertrophy (absolute ventricular weights, ventricular weight to tibia length ratios): Significant left and right ventricular hypertrophy
[6]
  Final Body Weight: 277 ± 5 g
  Left Ventricle Weight: 736 ± 25 mg
  Left Ventricle Weight/ Tibia Length: 194 ± 6 mg/cm
  Right Ventricle Weight: 183 ± 7 mg
  Right Ventricle Weight/ Tibia Length: 48 ± 2 mg/cm
[7]
  Final Body Weight: 270 ± 11 g
  Left Ventricle Weight: 817 ± 22 mg
  Left Ventricle Weight/ Tibia Length: 214 ± 5 mg/cm
  Right Ventricle Weight: 189 ± 5 mg
  Right Ventricle Weight/ Tibia Length: 50 ± 1 mg/cm
[8]
  Final Body Weight: 272 ± 10 g
  Left Ventricle Weight: 910 ± 29 mg
  Left Ventricle Weight/ Tibia Length: 233 ± 7 mg/cm
  Right Ventricle Weight: 192 ± 8 mg
  Right Ventricle Weight/ Tibia Length: 49 ± 2 mg/cm

## COC(=O)[C@@H]1CC2=CC(=O)CC[C@]2(C)[C@@]23O[C@@H]2C[C@@]2(C)[C@@H](CC[C@@]24CCC(=O)O4)[C@H]13 [Eplerenone]
[9]
  Left Ventricle Weight: 804 mg and 898 mg and 789 mg and 851 mg and 668 mg and 833 mg and 886 mg and 756 mg and 751 mg and 795 mg and 915 mg
  Left Ventricle Weight/ Tibia Length: 212 mg/cm and 236 mg/cm and 221 mg/cm and 176 mg/cm and 225 mg/cm and 233 mg/cm and 199 mg/cm and 198 mg/cm and 215 mg/cm and 235 mg/cm
  Right Ventricle Weight: 182 mg and 188 mg (2×) and 176 mg and 189 mg and 139 mg and 371 mg and 193 mg and 158 mg and 155 mg and 225 mg
  Right Ventricle Weight/ Tibia Length: 48 mg/cm and 49 mg/cm (3×) and 46 mg/cm and 37 mg/cm and 100 mg/cm and 51 mg/cm and 42 mg/cm (2×) and 58 mg/cm
[10]
  Left Ventricle Weight: 813 mg
  Left Ventricle Weight/ Tibia Length: 214 mg/cm
  Right Ventricle Weight: 197 mg
  Right Ventricle Weight/ Tibia Length: 52 mg/cm
  Body weight: significantly attenuated
[5]
  Ventricular hypertrophy (absolute ventricular weights, ventricular weight to tibia length ratios): did not impact
[11]
  Left Ventricle Weight: 859 mg and 712 mg and 618 mg and 658 mg and 754 mg and 733 mg and 726 mg and 696 mg and 700 mg and 688 mg
  Left Ventricle Weight/ Tibia Length: 220 mg/cm and 187 mg/cm and 167 mg/cm and 173 mg/cm and 198 mg/cm and 193 mg/cm and 191 mg/cm and 183 mg/cm and 184 mg/cm and 181 mg/cm
  Right Ventricle Weight: 216 mg and 181 mg (2×) and 154 mg and 174 mg and 192 mg and 171 mg and 190 mg and 170 mg and 187 mg
  Right Ventricle Weight/ Tibia Length: 55 mg/cm and 48 mg/cm (2×) and 42 mg/cm and 46 mg/cm and 51 mg/cm and 45 mg/cm (2×) and 50 mg/cm and 49 mg/cm
[12]
  Left Ventricle Weight: 714 mg
  Left Ventricle Weight/ Tibia Length: 188 mg/cm
  Right Ventricle Weight: 182 mg
  Right Ventricle Weight/ Tibia Length: 48 mg/cm
[6]
  Final Body Weight: 287 ± 4 g
  Left Ventricle Weight: 714 ± 20 mg
  Left Ventricle Weight/ Tibia Length: 188 ± 5 mg/cm
  Right Ventricle Weight: 182 ± 5 mg
  Right Ventricle Weight/ Tibia Length: 48 ± 1 mg/cm
[7]
  Final Body Weight: 283 ± 6 g
  Left Ventricle Weight: 813 ± 22 mg
  Left Ventricle Weight/ Tibia Length: 214 ± 6 mg/cm
  Right Ventricle Weight: 197 ± 19 mg
  Right Ventricle Weight/ Tibia Length: 52 ± 5 mg/cm
[8]
  Final Body Weight (g): 331 ± 7^# g
  Left Ventricle Weight: 936 ± 34 mg
  Left Ventricle Weight/ Tibia Length: 240 ± 9 mg/cm
  Right Ventricle Weight: 198 ± 6 mg
  Right Ventricle Weight/ Tibia Length: 51 ± 2 mg/cm
